# Source: US20200131156A1, “ARYLSULFONYLPYROLECARBOXAMIDE DERIVATIVES AS Kv3 POTASSIUM CHANNEL ACTIVATORS” (H. Lundbeck A/S, priority 2018, published 2020)
# Where two headings read alike, the source gives them in different places.
# Experiments:
# [1] = tested on: fast-spiking interneurons (FSI); assay: Hippocampal brain slice voltage clamp recording, outward K+ current from FSI; format: cell-based, rat; settings: 10 μM; for Outward current in presence of compound relative to baseline: step to 0 mV, baseline 100%
# Protocol: Male Sprague Dawley rats (18˜24 days old) from Shanghai Laboratory Animal Center (Shanghai, China) were used for brain slice experiments. They were housed in groups of five in controlled conditions (temperature of 23±3° C., humidity of 40-70%, and 12:12 light-dark cycle with lights on at 5:00 am) and free access to food and water. All procedures were conducted in agreement with the guideline of Institutional Animal Care and Use Committee at ChemPartner. Ethical approval was obtained by the The Danish Animal Experimentation Inspectorate (journal no. 2014 15 0201 00339).
# Animals were decapitated by a guillotine and their brains quickly removed and placed in ice-cold modified artificial cerebral spinal fluid (ACSF) containing (in mM): 110 sucrose, 60 NaCl, 3 KCl, 5 glucose, 28 NaHCO3, 1.25 NaH2PO4, 0.5 CaCl2 and 7 MgCl2, aerated with 95% O2/5% CO2. The brains were block-trimmed and glued onto the stage of a vibratome (VT1200S, Leica Microsystems Inc., Bannockburn, Ill., USA). Parasagittal hippocampal slices (300 μm) were cut and incubated in the regular carbogenated ACSF containing (in mM): 119 NaCl, 2.5 KCl, 1.2 Na2HPO4, 25 NaHCO3, 2.5 CaCl2, 1.3 MgCl2, 10 glucose at 35° C. for the first 60 min and then transferred to room temperature prior to recordings.
# In the hippocampal CA1 pyramidal cell layer, fast-spiking interneurons (FSI) or pyramidal (PYR) cells were visualized using differential interference contrast-infrared (DIC-IR)-assisted microscopy and whole-cell patch clamp recordings performed using an Axon Multiclamp 700B amplifier (Molecular Devices, Union City, Calif.). FSI were selected based on non-pyramidal shape and multipolar dendrites. […]
# Whole cell patch clamp recordings in voltage clamp mode were used to study the outward K^+ current from FSI or PYR cells. […] Outward K^+ current was recorded in the presence of 1 μM TTX and 10 μM DNQX in the ACSF to inhibit voltage-gated Na^+ channels and AMPA channels, respectively. […] For all recordings, the access resistance was monitored throughout the experiments. […]
# hNav1.1 = hNav1.1 (Homo sapiens, UniProt P35498); assay: Off-target Nav1.1 electrophysiology (Qpatch), multiple state readouts; format: cell-based; settings: resting, use-dependent and inactivated state readouts, up to 30 μM; for EC50: activation; for IC50: inhibition
# Protocol: (§1) The activity of selected compound examples at three key ion channel off targets was measured, namely Nav1.1, Kv1.1/1.2 and Kv7.2/7.3.
# The voltage gated sodium channel, Nav1.1, is known to have state-dependent pharmacology, therefore, compound examples were tested for effects on inhibition or activation at the resting state channel, a use-dependent readout, and an inactivated state readout by electrophysiology, at concentrations up to 30 μM.
# hKv7.2/7.3 = hKv7.2/7.3 (Homo sapiens, UniProt O43525+O43526); assay: Off-target Kv7.2/7.3 activation, fluorescence-based ion flux assay (FDSS); format: cell-based; settings: up to 30 μM
# Protocol: as §1
# Effects of selected examples on activation of the voltage gated heteromeric potassium channel Kv7.2/7.3 was tested in a fluorescence-based ion flux assay at concentrations up to 30 μM.
# hKv1.1/1.2 = hKv1.1/1.2 (Homo sapiens, UniProt P16389+Q09470); assay: Off-target Kv1.1/1.2 inhibition electrophysiology (Qpatch); format: cell-based; settings: up to 30 μM
# hKv1.1/1.2, sequence (Q09470 whole entry): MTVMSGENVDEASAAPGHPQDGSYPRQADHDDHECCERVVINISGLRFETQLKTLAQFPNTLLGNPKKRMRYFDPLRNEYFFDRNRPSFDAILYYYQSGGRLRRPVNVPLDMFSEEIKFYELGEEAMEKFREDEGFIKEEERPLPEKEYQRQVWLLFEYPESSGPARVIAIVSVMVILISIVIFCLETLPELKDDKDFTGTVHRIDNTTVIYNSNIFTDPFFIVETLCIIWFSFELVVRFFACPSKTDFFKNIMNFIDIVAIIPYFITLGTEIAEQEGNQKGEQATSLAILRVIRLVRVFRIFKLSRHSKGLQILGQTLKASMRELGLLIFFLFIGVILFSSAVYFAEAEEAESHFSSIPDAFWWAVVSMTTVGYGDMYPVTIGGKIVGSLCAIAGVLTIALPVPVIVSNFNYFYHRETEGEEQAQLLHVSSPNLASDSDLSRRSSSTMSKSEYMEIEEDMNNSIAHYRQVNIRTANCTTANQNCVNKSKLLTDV
# hKv1.1/1.2, sequence (P16389 whole entry): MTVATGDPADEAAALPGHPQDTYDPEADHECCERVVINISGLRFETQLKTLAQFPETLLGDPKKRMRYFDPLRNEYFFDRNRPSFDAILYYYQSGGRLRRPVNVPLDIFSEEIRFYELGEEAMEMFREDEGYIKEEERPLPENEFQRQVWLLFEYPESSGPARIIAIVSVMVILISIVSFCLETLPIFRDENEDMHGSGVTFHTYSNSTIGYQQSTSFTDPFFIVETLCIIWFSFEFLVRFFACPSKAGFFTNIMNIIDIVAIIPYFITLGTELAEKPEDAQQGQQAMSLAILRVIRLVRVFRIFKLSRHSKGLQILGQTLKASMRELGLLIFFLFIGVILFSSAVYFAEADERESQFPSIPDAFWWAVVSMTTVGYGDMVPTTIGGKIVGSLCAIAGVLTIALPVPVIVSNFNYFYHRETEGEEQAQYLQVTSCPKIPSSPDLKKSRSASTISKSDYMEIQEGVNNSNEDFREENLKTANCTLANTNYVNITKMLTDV
# Protocol: as §1
# Effects of selected examples on inhibition of the voltage gated heteromeric potassium channel Kv1.1/1.2 was also tested in a use-dependent manner by electrophysiology at concentrations up to 30 μM.
# [2] = In vivo pharmacokinetic time profile in mice (plasma and brain); parameters: species or system mouse; settings: for Kp / half-life / Cmax: male; for Kp: C57, mouse, brain, read-out: measured brain/plasma ratio; for half-life / Cmax: C57, plasma; for half-life / Cmax / Estimated unbound brain Cmax / Unbound plasma, Cmax: mouse; for half-life: read-out: T½ (converted)
# Protocol: Male Sprague Dawley rats or male C57 mice from SLAC Laboratory Animal Co. Ltd., Shanghai, China or SIPPR/BK Laboratory Animal Co. Ltd., Shanghai, China were used for pharmacokinetic studies. Animals were group housed during acclimation and individually housed during in-life. The animal room environment was controlled (conditions: temperature 20 to 26° C., relative humidity 30 to 70%, 12 hours artificial light and 12 hours dark) and all animals have access to Certified Rodent Diet (Beijing KEAO XIELI Feed Co., Ltd. Beijing, P.R. China.) ad libitum. Animals were deprived of food overnight prior to dosing and fed approximately 4 hours post-dosing. Water was autoclaved before provided to the animals ad libitum.
# For oral dosing, the dose formulation was administered via oral gavage.
# Animals were anesthetized via isoflurane. At terminal time point, about 200 μL blood was collected from cardiac puncture or abdominal vein. All blood samples were transferred into microcentrifuge tubes containing 5 μL of K2EDTA (0.5 M) as anti-coagulant and placed on wet ice until processed for plasma by centrifugation (3,000 rpm for 5 minutes at 2 to 8° C.) within half an hour of collection and kept at −70±10° C. until LC/MSMS analysis
# After blood collection, brain was harvested and washed twice with cold deionized water, and blotted on filter paper, weighted and frozen until processed. Brain samples were thawed and homogenized with 4-fold of cold water using Covaris (peak power 450.0, Duty Factor 20.0, Cycles/Burst 200). for 3 min, vortex for 10 second every 1 min. Samples were further stored at −79° C. (dilution factor=5) until bioanalysis
# [3] = resting, read-out: hKv1.1/1.2 (Qpatch) Resting IC50
# [4] = use-dependent, read-out: hKv1.1/1.2 (Qpatch) Use-dependent IC50
compound,measurement,setting,value
"Cc1ccc(S(=O)(=O)n2ccc(C(=O)NCc3ncco3)c2)cc1 [Compound 86, 1-(4-methylbenzene-1-sulfonyl)-N-[(1,3-oxazol-2-yl)methyl]-1H-pyrrole-3-carboxamide]",Outward current in presence of compound relative to baseline,[1],121±2%
same,EC50,hNav1.1,> 30 µM
same,IC50,hNav1.1,> 30 µM
same,EC50,hKv7.2/7.3,> 30 µM
same,IC50,hKv1.1/1.2; [3],> 30 µM
same,IC50,hKv1.1/1.2; [4],≥ 30 µM
same,Kp,[2]; subcutaneous,0.3
same,half-life,"[2]; SC administration, dose 3 (mg/mg) (Table 7)",42 min
same,Cmax,"[2]; SC administration, dose 3 (mg/mg), vehicle 10% HP-betaCD (Table 7)",3020 ng/mL
same,half-life,"[2]; SC administration, dose 30 (mg/mg) (Table 7)",36 min
same,Cmax,"[2]; SC administration, dose 30 (mg/mg), vehicle 10% HP-betaCD (Table 7)",22000 ng/mL
same,Estimated unbound brain Cmax,"[2]; SC, dose 3 (mg/mg), based on brain/plasma ratio 0.3 and unbound fraction in brain 11%",289 nM
same,"Unbound plasma, Cmax","[2]; SC, dose 3 (mg/mg), unbound fraction in plasma 8%",700 nM
same,Estimated unbound brain Cmax,"[2]; SC, dose 30 (mg/mg), based on brain/plasma ratio 0.3 and unbound fraction in brain 11%",2100 nM
same,"Unbound plasma, Cmax","[2]; SC, dose 30 (mg/mg), unbound fraction in plasma 8%",5094 nM
"Cc1cnc(CNC(=O)c2ccn(S(=O)(=O)c3ccc(F)cc3C)c2)cn1 [Compound 90, 1-(4-fluoro-2-methylbenzene-1-sulfonyl)-N-[(5-methylpyrazin-2-yl)methyl]-1H-pyrrole-3-carboxamide]",Reversibility of compound-mediated increase in outward K+ current (Wash),[1],largely reversible
same,Outward current in presence of compound relative to baseline,[1],144±4%
same,EC50,hNav1.1,> 30 µM
same,IC50,hNav1.1,> 30 µM
same,EC50,hKv7.2/7.3,> 30 µM
same,IC50,hKv1.1/1.2; [3],> 30 µM
same,IC50,hKv1.1/1.2; [4],> 30 µM
same,Kp,[2],0.4
same,Cmax,"[2]; 3 mg/kg, PO administration, dose 3 (mg/mg), vehicle 10% HP-betaCD",274 ng/mL
same,half-life,"[2]; 3 mg/kg, PO administration, dose 3 (mg/mg)",60 min
same,Cmax,"[2]; 3 mg/kg, SC administration, dose 3 (mg/mg), vehicle 10% HP-betaCD",1130 ng/mL
same,half-life,"[2]; 3 mg/kg, SC administration, dose 3 (mg/mg)",30 min
same,Cmax,"[2]; 10 mg/kg, SC administration, dose 10 (mg/mg), vehicle 10% HP-betaCD",6360 ng/mL
same,half-life,"[2]; 10 mg/kg, SC administration, dose 10 (mg/mg)",78 min
same,Cmax,"[2]; 30 mg/kg, PO administration, dose 30 (mg/mg), vehicle 10% HP-betaCD",7350 ng/mL
same,half-life,"[2]; 30 mg/kg, PO administration, dose 30 (mg/mg)",60 min
same,Estimated unbound brain Cmax,"[2]; PO, dose 3 (mg/mg), based on brain/plasma ratio 0.4 and unbound fraction in brain 10%",28 nM
same,"Unbound plasma, Cmax","[2]; PO, dose 3 (mg/mg), unbound fraction in plasma 10%",70 nM
same,Estimated unbound brain Cmax,"[2]; PO, dose 30 (mg/mg), based on brain/plasma ratio 0.4 and unbound fraction in brain 10%",753 nM
same,"Unbound plasma, Cmax","[2]; PO, dose 30 (mg/mg), unbound fraction in plasma 10%",1895 nM
same,Estimated unbound brain Cmax,"[2]; SC, dose 3 (mg/mg), based on brain/plasma ratio 0.4 and unbound fraction in brain 10%",116 nM
same,"Unbound plasma, Cmax","[2]; SC, dose 3 (mg/mg), unbound fraction in plasma 10%",291 nM
same,Estimated unbound brain Cmax,"[2]; SC, dose 10 (mg/mg), based on brain/plasma ratio 0.4 and unbound fraction in brain 10%",656 nM
same,"Unbound plasma, Cmax","[2]; SC, dose 10 (mg/mg), unbound fraction in plasma 10%",1639 nM
